Blank lines part the entries; values can stand above or below the molecule they belong to.
How the values were obtained:
[1] = molecular target: T1, OAT4 (Solute carrier family 22 member 11) (Homo sapiens, UniProt Q9NSA0); test: TP_TRANSPORTER: inhibition of MTX uptake (MTX: 1 uM, Probenecid: 1000 uM) in OAT4-expressing S2 cells; type: functional, cell-based; set-up: scale not given: the % may be the effect or the level left; details: probe MTX, read-out: Activity
T1 sequence (Q9NSA0 whole entry): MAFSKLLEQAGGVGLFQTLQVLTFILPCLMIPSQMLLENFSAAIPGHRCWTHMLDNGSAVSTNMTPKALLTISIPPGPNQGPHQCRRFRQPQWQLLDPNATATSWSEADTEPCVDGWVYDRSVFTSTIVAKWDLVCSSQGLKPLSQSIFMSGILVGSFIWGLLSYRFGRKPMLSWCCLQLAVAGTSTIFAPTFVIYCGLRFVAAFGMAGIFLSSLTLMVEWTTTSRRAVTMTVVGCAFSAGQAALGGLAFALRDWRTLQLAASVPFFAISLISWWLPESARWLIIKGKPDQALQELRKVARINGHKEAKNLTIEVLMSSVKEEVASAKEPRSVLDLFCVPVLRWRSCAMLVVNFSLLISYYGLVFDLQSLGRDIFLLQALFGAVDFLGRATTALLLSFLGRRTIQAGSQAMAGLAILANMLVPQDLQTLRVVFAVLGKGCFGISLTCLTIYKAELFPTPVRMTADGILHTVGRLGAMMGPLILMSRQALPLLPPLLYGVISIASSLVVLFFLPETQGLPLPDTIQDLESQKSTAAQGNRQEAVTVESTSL

[2] = molecular target: T2, Organic anion transporter 3 (Homo sapiens, UniProt Q8TCC7); test: TP_TRANSPORTER: inhibition of MTX uptake in OAT3-expressing S2 cells; type: functional, cell-based
T2 sequence (Q8TCC7 whole entry): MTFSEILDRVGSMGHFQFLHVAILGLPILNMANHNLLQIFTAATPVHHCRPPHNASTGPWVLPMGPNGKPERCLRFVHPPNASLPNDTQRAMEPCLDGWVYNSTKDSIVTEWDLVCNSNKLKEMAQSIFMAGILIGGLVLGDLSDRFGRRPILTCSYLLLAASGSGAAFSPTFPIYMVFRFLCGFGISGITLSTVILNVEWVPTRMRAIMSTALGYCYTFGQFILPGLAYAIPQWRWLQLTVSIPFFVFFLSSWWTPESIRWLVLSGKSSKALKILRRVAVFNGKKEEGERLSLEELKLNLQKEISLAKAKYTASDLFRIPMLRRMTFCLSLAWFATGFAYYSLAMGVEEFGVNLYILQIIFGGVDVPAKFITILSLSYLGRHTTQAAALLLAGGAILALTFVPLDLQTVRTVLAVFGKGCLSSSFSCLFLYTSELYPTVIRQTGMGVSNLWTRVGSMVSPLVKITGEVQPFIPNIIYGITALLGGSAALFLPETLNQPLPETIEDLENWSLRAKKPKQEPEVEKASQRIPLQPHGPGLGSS

[3] = molecular target: T1, OAT4 (Solute carrier family 22 member 11); test: TP_TRANSPORTER: inhibition of MTX uptake (MTX: 1 uM, Piroxicam: 1000 uM) in OAT4-expressing S2 cells; type: functional, cell-based; set-up: scale not given: the % may be the effect or the level left; details: mouse, probe MTX, read-out: Activity
[4] = molecular target: T1, OAT4 (Solute carrier family 22 member 11); test: TP_TRANSPORTER: inhibition of MTX uptake (MTX: 1 uM, Indomethacin: 500 uM) in OAT4-expressing S2 cells; type: functional, cell-based; set-up: scale not given: the % may be the effect or the level left; details: probe MTX, read-out: Activity
[5] = molecular target: T3, OAT1 (Solute carrier family 22 member 6) (Homo sapiens, UniProt Q4U2R8); test: TP_TRANSPORTER: inhibition of MTX uptake (MTX: 1 uM, Indomethacin: 500 uM) in OAT1-expressing S2 cells; type: functional, cell-based; set-up: scale not given: the % may be the effect or the level left; details: mouse, probe MTX, read-out: Activity
T3 sequence (Q4U2R8 whole entry): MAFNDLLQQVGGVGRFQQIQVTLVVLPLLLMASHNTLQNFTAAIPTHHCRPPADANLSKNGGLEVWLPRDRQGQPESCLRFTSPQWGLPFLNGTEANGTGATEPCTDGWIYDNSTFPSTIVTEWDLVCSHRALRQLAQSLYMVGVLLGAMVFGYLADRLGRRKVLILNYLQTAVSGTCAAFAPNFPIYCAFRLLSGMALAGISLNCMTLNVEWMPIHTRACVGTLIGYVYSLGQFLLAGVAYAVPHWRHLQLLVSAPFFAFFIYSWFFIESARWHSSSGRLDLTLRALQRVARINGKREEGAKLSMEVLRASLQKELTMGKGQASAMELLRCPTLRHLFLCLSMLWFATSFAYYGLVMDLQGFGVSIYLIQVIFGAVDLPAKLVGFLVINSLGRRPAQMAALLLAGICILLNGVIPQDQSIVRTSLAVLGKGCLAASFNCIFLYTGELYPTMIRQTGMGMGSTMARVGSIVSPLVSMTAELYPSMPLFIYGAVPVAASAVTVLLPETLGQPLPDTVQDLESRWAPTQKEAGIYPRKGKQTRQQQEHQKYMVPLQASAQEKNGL

[6] = molecular target: T1, OAT4 (Solute carrier family 22 member 11); test: TP_TRANSPORTER: inhibition of MTX uptake (MTX: 1 uM, PCG: 1000 uM) in OAT4-expressing S2 cells; type: functional, cell-based; set-up: scale not given: the % may be the effect or the level left; details: mouse, probe MTX, read-out: Activity
[7] = molecular target: T3, OAT1 (Solute carrier family 22 member 6); test: TP_TRANSPORTER: inhibition of MTX uptake (MTX: 1 uM, Ketoprofen: 1000 uM) in OAT1-expressing S2 cells; type: functional, cell-based; set-up: scale not given: the % may be the effect or the level left; details: probe MTX, read-out: Activity
[8] = molecular target: T1, OAT4 (Solute carrier family 22 member 11); test: TP_TRANSPORTER: inhibition of MTX uptake (MTX: 1 uM, Ketoprofen: 1000 uM) in OAT4-expressing S2 cells; type: functional, cell-based; set-up: scale not given: the % may be the effect or the level left; details: mouse, probe MTX, read-out: Activity
[9] = molecular target: T3, OAT1 (Solute carrier family 22 member 6); test: TP_TRANSPORTER: inhibition of MTX uptake (MTX: 1 uM, Phenylbutazone: 1000 uM) in OAT1-expressing S2 cells; type: functional, cell-based; set-up: scale not given: the % may be the effect or the level left; details: probe MTX, read-out: Activity
[10] = molecular target: T1, OAT4 (Solute carrier family 22 member 11); test: TP_TRANSPORTER: inhibition of MTX uptake (MTX: 1 uM, Phenylbutazone: 1000 uM) in OAT4-expressing S2 cells; type: functional, cell-based; set-up: scale not given: the % may be the effect or the level left; details: probe MTX, read-out: Activity
[11] = molecular target: T1, OAT4 (Solute carrier family 22 member 11); test: TP_TRANSPORTER: inhibition of MTX uptake (MTX: 1 uM, Ibuprofen: 1000 uM) in OAT4-expressing S2 cells; type: functional, cell-based; set-up: scale not given: the % may be the effect or the level left; details: probe MTX, read-out: Activity
[12] = substrate: CN(Cc1cnc2nc(N)nc(N)c2n1)c1ccc(C(=O)N[C@@H](CCC(=O)O)C(=O)O)cc1; test: cells, lysate or membranes named
[13] = substrate: CN(Cc1cnc2nc(N)nc(N)c2n1)c1ccc(C(=O)N[C@@H](CCC(=O)O)C(=O)O)cc1; test: TP_TRANSPORTER: uptake in OAT1-expressing S2 cells; type: functional, cell-based

activity at 1000 µM [1]: 81.6%
Molecule: CCCN(CCC)S(=O)(=O)c1ccc(C(=O)O)cc1 [PROBENECID]

Ki [2]: 1200 µM | activity at 1000 µM [3]: 62%
Molecule: CN1C(C(=O)Nc2ccccn2)=C(O)c2ccccc2S1(=O)=O [PIROXICAM]

Ki [2]: 97.6 µM | activity at 1000 µM [6]: 79.7%
Molecule: CC1(C)S[C@@H]2[C@H](NC(=O)Cc3ccccc3)C(=O)N2[C@H]1C(=O)O [PENICILLIN G]

Ki [2]: 1160 µM | activity at 1000 µM [7]: 53.4% | activity at 1000 µM [8]: 81%
Molecule: CC(C(=O)O)c1cccc(C(=O)c2ccccc2)c1 (centres undefined) [KETOPROFEN]

Ki [2]: 34.7 µM | activity at 1000 µM [9]: 30% | activity at 1000 µM [10]: 55.7%
Molecule: CCCCC1C(=O)N(c2ccccc2)N(c2ccccc2)C1=O [PHENYLBUTAZONE]

Further lines, the molecule ahead of its results:

Molecule: COc1ccc2c(c1)c(CC(=O)O)c(C)n2C(=O)c1ccc(Cl)cc1 [INDOMETHACIN]
Ki [2]: 5.95 µM | activity at 500 µM [4]: 60.9% | activity at 500 µM [5]: 60.6%

Molecule: O=C(O)c1ccccc1O [SALICYLIC ACID]
Ki [2]: 1020 µM

Molecule: CC(C)Cc1ccc(C(C)C(=O)O)cc1 (centres undefined) [IBUPROFEN]
activity at 1000 µM [11]: 67.8%

B1: Solute carrier family 22 member 6 (Homo sapiens) (protein)
chain: T3 sequence (Q4U2R8 whole entry)
Km [12]: 554 µM

B2: Organic anion transporter 3 (Homo sapiens) (protein)
chain: T2 sequence (Q8TCC7 whole entry)
Km [13]: 21.1 µM

B3: Solute carrier family 22 member 11 (Homo sapiens) (protein)
chain: T1 sequence (Q9NSA0 whole entry)
Km [13]: 17.8 µM

From ChEMBL document CHEMBL2073817 (J Pharmacol Exp Ther, 2002)
